Data on six compounds can be found in patent publication US4480030A, “Tripeptide derivatives and their application in assaying enzymes” (Pentapharm A.G., priority 1980, dated 1984).

For one experiment, the target named is T1, human factor Xa (Homo sapiens, UniProt P00742).
T1 construct: from tissue
As to the kind of experiment: Activity of factor Xa obtained by RVV activation of factor X in normal human blood plasma on substrate (split product H-R5 released). In kind it is biochemical. As to conditions: substrate concentration 2 × 10^-4; TRIS-imidazole buffer pH 8.4, ionic strength 0.3, 37° C.; citrated plasma activated with Russel viper venom 75 seconds; value calculated for 1 ml of citrated plasma. As for the experimental part: (§1) The values of the factor Xa activity given in Table 4 were determined experimentally in the manner described hereinafter:
For determining the activity of human factor Xa 0.01 ml of normal citrated plasma was mixed with 0.20 ml of a solution of Russel viper venom in TRIS-imidazole buffer having a pH of 8.4 and an ionic strength of 0.3 and containing 15 mmoles of CaCl2 […]. The mixture was incubated for 75 seconds at 37° C. in order to activate factor X present in the plasma and convert it completely into factor Xa. To the incubate there was added first 1.40 ml of TRIS-imidazole buffer (pH 8.4, ionic strength 0.3) heated to 37° C. and then 0.40 ml of a 2×10^-3 M aqueous solution of a substrate of the invention. Thereafter, the quantity of split produce H--R^5 in nanomoles released per minute was determined, and the corresponding value for 1 ml of citrated plasma was calculated.

A further experiment addresses T2, bovine factor Xa (Bos taurus, UniProt P00743).
T2 construct: purchased Diagnostic Reagents Ltd., Thame, Great Britain factor Xa preparation "Diagen"
Nature of the experiment: Activity of bovine factor Xa solution on chromogenic/fluorogenic substrate (split product H-R5 released). The format is biochemical. The settings on record: substrate concentration 2 × 10^-4; TRIS-imidazole buffer pH 8.4, ionic strength 0.3, 37° C.; factor Xa preparation "Diagen"; value calculated for 1 ml of factor Xa solution. The method, then: as §1
For determining the activity of bovine factor Xa 1.8 ml of TRIS-imidazole buffer having a pH of 8.4 and an ionic strength of 0.3 was well mixed at 37° C. with 0.025 ml of an aqueous solution of factor Xa preparation "Diagen" (furnisher: Diagnostic Reagents Ltd., Thame, Great Britain) obtained by dissolving the contents of one vial in 0.5 ml of water. To the mixture there was added 0.2 ml of a 2×10^-3 M aqueous solution of a substrate of the invention. Thereafter, the quantity of split product H--R^5 in nanomoles released per minute was determined, and the corresponding value of 1 ml of factor Xa solution was calculated.

Square brackets hold non-standard residues; d marks the D form. Peptide text beside a SMILES is read from it. * marks the point of attachment. dAad = N[C@H](CCCC(=O)O)C(=O)O; pNA = O=[N+]([O-])c1ccc(N*)cc1; Cbz = O=C(OCc1ccccc1)*

T1 sequence (P00742 235-488 limits assumed): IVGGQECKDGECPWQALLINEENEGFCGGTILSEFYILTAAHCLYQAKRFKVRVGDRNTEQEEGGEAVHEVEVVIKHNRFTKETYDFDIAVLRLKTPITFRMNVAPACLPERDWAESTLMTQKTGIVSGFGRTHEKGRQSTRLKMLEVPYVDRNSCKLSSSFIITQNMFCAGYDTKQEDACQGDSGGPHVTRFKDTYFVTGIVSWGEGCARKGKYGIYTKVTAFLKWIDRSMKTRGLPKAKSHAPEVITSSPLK
T1 sequence (P00742 41-179 partner limits assumed): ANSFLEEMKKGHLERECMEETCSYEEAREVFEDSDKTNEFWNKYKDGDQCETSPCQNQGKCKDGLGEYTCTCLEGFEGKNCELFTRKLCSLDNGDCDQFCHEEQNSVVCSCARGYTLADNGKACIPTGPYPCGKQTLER
T2 sequence (P00743 234-492 limits assumed): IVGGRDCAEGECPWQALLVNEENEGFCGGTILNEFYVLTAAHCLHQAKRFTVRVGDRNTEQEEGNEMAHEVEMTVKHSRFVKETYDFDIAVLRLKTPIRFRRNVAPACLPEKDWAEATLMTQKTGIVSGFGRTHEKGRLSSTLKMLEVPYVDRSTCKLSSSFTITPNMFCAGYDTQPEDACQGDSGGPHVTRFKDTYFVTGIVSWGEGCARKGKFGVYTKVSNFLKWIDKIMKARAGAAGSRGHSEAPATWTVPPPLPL
T2 sequence (P00743 41-180 partner limits assumed): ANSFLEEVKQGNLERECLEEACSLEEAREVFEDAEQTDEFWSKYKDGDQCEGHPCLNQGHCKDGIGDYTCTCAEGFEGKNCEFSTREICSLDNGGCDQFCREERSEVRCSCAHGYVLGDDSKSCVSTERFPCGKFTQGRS

With “2-(4-Cbo-- amino)-phenylacetyl-D-Nval--Gly--Arg--pNA.HBr [Example 53]”, the “Activity of factor Xa as obtained by activation of factor X in 1 ml of normal human blood plasma by means of RVV, expressed in nanomoles of split product H--R^5 released per minute” value (from here on “Activity of factor Xa as obtained … per minute”) at human factor Xa was 510 nanomoles of split product H--. In addition, the “Activity of 1 ml of aqueous solution of bovine factor Xa, expressed in nanomoles of split product H--R^5 released per minute” value (from here on “Activity of 1 ml … per minute”) at bovine factor Xa is 680 nanomoles of split product H--.

On to “4-Aminomethyl-cyclohexyl-carbonyl-bonyl-D-Leu--Sar--Arg--pNA.2HBr [Example 43]”, for which the “Activity of factor Xa as obtained … per minute” value at human factor Xa is 30 nanomoles of split product H--. In addition, at bovine factor Xa, the “Activity of 1 ml … per minute” value is given as 60 nanomoles of split product H--.

As for `N=C(N)NCCC[C@H](NC(=O)CNC(=O)[C@@H](CCC(=O)O)NC(=O)OCc1ccccc1)C(=O)Nc1ccc([N+](=O)[O-])cc1` [Example 96, Cbo--D-Glu--Gly--Arg--pNA] (Cbz-[dE]-Gly-Arg-pNA), the “Activity of factor Xa as obtained … per minute” value on human factor Xa was 505 nanomoles of split product H--. Moreover, the “Activity of 1 ml … per minute” value on bovine factor Xa was 830 nanomoles of split product H--.

For `N=C(N)NCCC[C@H](NC(=O)CNC(=O)[C@@H](CCCC(=O)O)NC(=O)OCc1ccccc1)C(=O)Nc1ccc([N+](=O)[O-])cc1` [Example 102, Cbo--D-Aadi--Gly--Arg--pNA] (Cbz-[dAad]-Gly-Arg-pNA), the “Activity of factor Xa as obtained … per minute” value on human factor Xa is 905 nanomoles of split product H--. Besides, the “Activity of 1 ml … per minute” value on bovine factor Xa is on record as 1030 nanomoles of split product H--.

For “BOC--D-(α)-AOA--Gly--Arg--pNA.AcOH [Example 84]”, the “Activity of factor Xa as obtained … per minute” value on human factor Xa was 1690 nanomoles of split product H--. Also, the “Activity of 1 ml … per minute” value at bovine factor Xa is recorded as 2210 nanomoles of split product H--.

Regarding “Cbo--4-aminomethyl-cyclohexyl-carbonyl-D-Leu--176 Sar--Arg--pNA.HBr [Example 42]”, the “Activity of factor Xa as obtained … per minute” value on human factor Xa was 20 nanomoles of split product H--. Moreover, the “Activity of 1 ml … per minute” value at bovine factor Xa is on record as 30 nanomoles of split product H--.
